Source: PubChem BioAssay AID179 (DTP/NCI, 2004)
Several values for one entry are separate records, joined by “and”; a condition that tells them apart may be missing. Identical values can stand only once. Activity calls are given as the source filed them.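 The calls were made as follows: active = compounds giving half or more protection of infected cells from virus-caused growth loss, again on retest; inactive = the rest.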 Where a SMILES comes first, the peptide text is derived from it. [ ]: non-standard residue; d: D form. The star is where a group is joined. Boc = CC(C)(C)OC(=O)*; Lac = C[CH](O)C(=O)O; OBn = c1ccc(CO*)cc1

Test system: CEM cells HIV-1 protection, formazan growth assay
Test: NCI AIDS Antiviral Assay
Conditions: for IC50: measured here: growth of uninfected CEM cells
Summary of the method: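 Soluble formazan readout of cell growth; CEM cells ± HIV-1; 5 drug concs. ≥50% protection → retest; ≥50% again = moderately active; reproducible 100% = confirmed active.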

Structure (SMILES) | EC50 | IC50 | outcome
CN(C)c1nc(N(C)C)nc(N(C)CN(C)c2ccccc2)n1 | > 100 µM | > 100 µM | –
CC(C(=O)O)[S+]1CCOCC1 (configuration not stated) | 0.0631 µM | > 200 µM | –
Cc1ccc(S(=O)(=O)N=NC=C2c3ccccc3N(O)c3ccccc32)cc1 | – | – | inactive
Cc1ccc(S(=O)(=O)c2scc(-c3ccccc3)c2C)cc1 | > 200 µM | 107 µM | –
CCOC(OC1=C(C#N)CCCC1)C(CC)[Se]c1ccccc1[N+](=O)[O-] (configuration not stated) | > 23.4 µM | > 23.4 µM | –
Cc1ccccc1-c1c(N)nc(N)nc1C(=O)Nc1nccs1 | > 41.7 µM | > 41.7 µM | –
c1ccc(C[P+](c2ccccc2)(c2ccccc2)c2ccc3ccccc3c2-c2c([P+](Cc3ccccc3)(c3ccccc3)c3ccccc3)ccc3ccccc23)cc1 | > 257 µM | 0.389 µM and 2.51 µM | –
CCC1CCCCN1CC(C(C)=O)C(c1ccccc1)c1c(O)c2ccccc2oc1=O (configuration not stated) | > 69.2 µM | > 69.2 µM | –
CC(OC(=O)C(Cc1ccccc1)NC(=O)C(Cc1ccccc1)NC(=O)OC(C)(C)C)C(=O)OCc1ccccc1 (stereo not drawn) (Boc-Phe-Phe-[Lac]-OBn; configuration not given here) | > 200 µM | 105 µM | –
COc1cc2ccnc3c(=C(SC)SC)c(=O)c(c1OC)c23 | – | – | inactive
COc1ccc(/C=C2\CCC/C(=C\c3ccc(O)c(CN4CCCCC4)c3)C2=O)cc1 | > 200 µM | 3.16 µM | –
CCc1cccc(C(C)CC)c1NC(=O)CC1C(=O)Nc2ccccc2S1(=O)=O (configuration not stated) | > 12 µM | > 12 µM | –
COC1=C(C)C(=O)c2nc(C)ccc2C1=O | – | – | inactive
NC(=O)C(N)CC12CC3CC(CC(C3)C1)C2 (configuration not stated) | > 200 µM | 39.8 µM | –
Cc1ccc(C2(c3ccc(C)cc3)SC(=C(C#N)C#N)c3ccccc32)cc1 | > 200 µM | > 200 µM | –
O=c1[nH]c2ccccc2nc1CBr | > 200 µM | 2.82 µM | –
NNC(=O)CC(=O)Nc1ccc(Cl)cc1 | > 200 µM | 112 µM | –
O=S(=O)(O)c1cc(Nc2ccnc3ccccc23)c2c(S(=O)(=O)O)cc(S(=O)(=O)O)cc2c1 | > 200 µM | > 200 µM | –
CCC1C(NC(=O)OC)C(=O)N1[C@@H](C)c1ccccc1 (some centres not stated) | > 200 µM | > 200 µM | –
COc1ccc(/C=C2/N=C(c3ccccc3)OC2=O)cc1OC | > 23.4 µM | > 23.4 µM | –
C[C@@H]1OC2(O)[C@H]3CCCN3S(=O)(=O)CCN2C1=O (some centres not stated) | > 912 µM | > 912 µM | –
O=C1OCCOC(=O)c2cccc(n2)C(=O)OCCOC(=O)c2cccc1n2 | 22.9 µM | 25.7 µM | –

Structure (SMILES) | EC50 | IC50 | outcome
Nc1ccn(CC(=O)NCCO)c(=O)n1 | > 200 µM | > 200 µM | –
COc1cc2c3c(c1)/C(=N\N)CCN3CCC2 | > 200 µM | 115 µM | –
COc1ccc(-c2coc3c4c(ccc3c2=O)OCO4)cc1OC | – | – | inactive
C=C1C=CN(C(C)=O)C(OC(C)=O)C1SC(C)(C)C (configuration not stated) | > 200 µM | 57.5 µM | –
CCOC(=O)C(C)Sc1nnc(COc2ccc(Cl)cc2)n1-c1ccccc1 (configuration not stated) | > 100 µM | 47.9 µM | –
CCN1C(=O)/C(=C2\SC(c3ccccc3)(c3ccccc3)c3ccccc32)SC1=S | > 200 µM | > 200 µM | –
CN(C)C1=c2c(=O)n(C)c(=O)n(C)c2=NC2C=CC=CN12 (configuration not stated) | > 174 µM | > 174 µM | –
CCNC(=S)N/N=C(/c1ccccc1)c1ccccn1 | > 200 µM | 1 µM | –
CN(C)CCCNc1ccnc2cc([N+](=O)[O-])ccc12 | > 200 µM | 12.9 µM | –
COCCOCOC(CCCCO)c1cc(C)c(O[Si](C)(C)C(C)(C)C)c(C)c1 (configuration not stated) | > 50.1 µM | 4.9 µM | –
O=c1c2c([nH]n1-c1ccccc1)-c1ccccc1CS2 | > 204 µM | 135 µM | –
CCOC(=O)Cc1c(C)c2ccc(OC(C)=O)c(OC(C)=O)c2oc1=O | > 200 µM | 36.3 µM | –
COc1ccccc1NC(=O)/C(=C\N1CCNC1=S)C(C)=O | > 200 µM | > 200 µM | –
c1ccc(N2N=NC3CCCC32N2CCCCC2)cc1 (configuration not stated) | > 200 µM | 110 µM | –
COc1nc(N)c(N(C(C)=O)C(C)=O)c(=O)[nH]1 | – | – | inactive
c1cnc2nc3n(c2c1)CSC3 | > 380 µM | 355 µM | –
O=c1[nH]c2c(c3ccccc13)CCc1ccccc1-2 | – | – | inactive
CCOC(=O)/C(O)=C1\C(=O)N(C)C(=O)C1c1cccc(OC)c1 (configuration not stated) | – | – | inactive
COc1ccc2nc3cc(Cl)ccc3c(SCC(=O)Nc3ccccc3-c3ccccc3NC(=O)CSc3c4ccc(Cl)cc4nc4ccc(OC)cc34)c2c1 | > 8.91 µM | > 8.91 µM | –
N#CN/C(N)=N/CO | > 776 µM | 46.8 µM | –
C(=Nc1cnc2ccccc2c1)c1ccccn1 | > 407 µM | 102 µM | –
CC1=CCC2CC1C(C(=O)c1c[nH]c3ccccc13)=NC2(C)C (configuration not stated) | > 81.3 µM | > 81.3 µM | –

Structure (SMILES) | EC50 | IC50 | outcome
CCOC(=O)C(CCC(N)=O)(CCC(=O)OC)C(=O)OCC | > 200 µM | > 200 µM | –
OCCN(CCO)CCCNc1ccnc2cc(Cl)ccc12 | > 200 µM | 18.2 µM | –
O=CN/C=C/c1cc(O)ccc1O | > 79.4 µM | 4.57 µM | –
CC1(C)CC(C)(C)CC(O)(C2(O)CC(C)(C)CC(C)(C)C2)C1 | > 8.71 µM | > 8.71 µM | –
COc1cc(C2c3cc4c(cc3OC(NNC(N)=O)C2C)OCO4)cc(OC)c1OC (configuration not stated) | > 200 µM | 0.331 µM | –
CC(C)(C)[Si](C)(C)OCC1OC(n2ccc(=O)[nH]c2=O)C(O[Si](C)(C)C(C)(C)C)C1C/C=[N+](/[O-])CC1OC(n2ccc(=O)[nH]c2=O)C(O[Si](C)(C)C(C)(C)C)C1O[Si](C)(C)C(C)(C)C (configuration not stated) | > 100 µM | > 100 µM | –
C=CC(O)C#Cc1cnc(OC)nc1OC (configuration not stated) | – | – | inactive
O=C1CC(=O)NC(=NN2C(=O)CSC2c2ccc(Cl)cc2)N1 (configuration not stated) | > 200 µM | 105 µM | –
Cc1ccc2c(c1)C(=O)CC1CC(=O)c3ccccc3C21 (configuration not stated) | > 200 µM | > 200 µM | –
O=C1c2cscc2C(=O)c2sccc21 | > 200 µM | 23.4 µM | –
O=c1[nH]c(=O)n(C2CC(F)(F)C(CO)O2)cc1COCC(F)(F)F (configuration not stated) | > 174 µM | > 174 µM | –
COC(=O)c1ccc(NCc2cc(O)c3ccccc3c2O)cc1 | > 200 µM | 3.02 µM | –
Cc1cc2c(cc1C)[n+](=O)cc(C(=O)C/C(=N/NC(=S)NN)C(=O)Nc1cccc(C(F)(F)F)c1)n2[O-] | > 126 µM | > 126 µM | –
CN(C)c1ccc2nc(C(=O)O)c(=O)n(C)c2c1 | > 200 µM | > 200 µM | –
O=C1OCCN1CCO | > 200 µM | > 200 µM | –
CCN(CC)CCN(CC)C(=O)COc1cc2c(O)c3c(O)c(C)c4c(c13)C(=O)C(C)(O/C=C/C(OC)C(C)C(OC(C)=O)C(C)C(O)C(C)C(O)C(C)/C=C/C=C(\C)C(=O)N2)O4 (configuration not stated) | > 200 µM | 35.5 µM | –
COc1ccc2nccc3c2c1NC(Cl)=C3 | > 200 µM | 1.58 µM | –
CC1C(C#N)(C#N)C(C#N)=C(N)C1(Cl)[N+](=O)[O-] (configuration not stated) | > 200 µM | 3.72 µM | –
Cn1cc(NC(=O)c2cc(NC(=O)c3cc(NC=O)cn3C)cn2C)cc1C(=O)NCCC(=N)N | > 513 µM | 30.2 µM | –
CC(=O)OC12CCCCC(CCCC1)O2 | > 200 µM | > 200 µM | –
O=C1N[C@@H](Cc2ccccc2)C(=O)N2CSC[C@H]12 | > 631 µM | > 631 µM | –
